# Patent US7736625B2, “Light stabilized in vivo stain composition and method of manufacture” (Zila, Inc., priority 2001, dated 2010)
# Assay: light stability of thiazine dye solution exposed to ambient incandescent light
# Type: physicochemical
# Settings: total metal content less than 0.2 wt. %; initially deep-blue; overnight in the laboratory
# Method: This example illustrates the light-instability of a TC product with negligible content of metal ions.
# A sample of the TC product is prepared in accordance with Example 1 of my U.S. Pat. No. 6,086,852, incorporated herein by reference, and further purified by preparative high performance liquid chromatography. The total metal content of this sample is less than 0.2 wt. %.
# An aliquout of this purified TC product sample is deep-blue in color.
smiles,measurement,value
"Cc1cc2nc3ccc(=[N+](C)C)cc-3sc2cc1N.[Cl-] [TC product, tolonium chloride]",appearance of the solution after standing overnight exposed to ambient incandescent light,becomes colorless
